In article PMC9150102 (Journal of Medicinal Chemistry, 2022):

How the values were obtained:
SERCA1 = molecular target: T1, SERCA1 (Cavia porcellus, UniProt H0UXI0); assay: SERCA1 ATPase activity in PLN-free skeletal muscle microsomes; assay type: biochemical, guinea pig; conditions: 30 to 1000 nM
T1 construct: from tissue; host or cells: adult male guinea pig fast-twitch hind leg muscle, SR microsomes
Description: (§1) Data are the mean ± SEM. *p < 0.05 (one-way RM ANOVA plus post hoc Tukey’s multiple comparisons or paired t-test).
(§2) Measurements were performed in cardiac SR microsomes (guinea pig) and in whole tissue homogenates (rat). Cardiac preparations included SERCA2a and PLN. To test for PLN involvement in the effect of compounds, SERCA1 activity was measured in PLN-free microsomes (from guinea pig skeletal muscle) before and after reconstitution with the synthetic PLN1–32 inhibitory fragment at a ratio of 300:1 for PLN/SERCA. […] Either an increase in Vmax (rat) or a decrease in KdCa (increased Ca^2+ affinity) (guinea pig) stands for enhancement of SERCA function.
(§3) (rats). As verified by Western blot, cardiac microsomes preparations included SERCA2a and PLN and skeletal muscle ones included SERCA1 only.
(§4) SERCA stimulation4, compounds were also tested on SERCA1 in microsomes of guinea-pig skeletal muscle (PLN-free) before and after reconstitution with the PLN1-32 inhibitory fragment at a ratio of 300:1 […]
SERCA2a ATPase activity was measured as the rate of 32P-ATP release at multiple Ca2+ concentrations (100-2000 nM) in the absence and presence of tested compounds, as previously described5. […] 32P was separated by centrifugation with activated charcoal (Norit A, Serva) and the radioactivity was measured. […]

[1] = test system: SERCA1 reconstituted with PLN1–32 fragment; assay: SERCA1 ATPase activity after reconstitution with PLN1-32 fragment; assay type: biochemical, guinea pig; conditions: 30 to 1000 nM
Description: as §1, §2, §3, §4
Tissues were homogenized, subjected to centrifugation to obtain SR -enriched microsomes and sarcomeric proteins were extracted, as previously described 4.
(§5) In the case of guinea-pig hearts, LV tissues were homogenized in 4 volumes of 10 mM NaHCO3, 1 mM PMSF, 10 μg/ml aprotinin and leupeptin (pH 7) and centrifuged at 12,000g for 15 minutes. Supernatants were filtered and centrifuged at 100,000 g for 30 min. Contractile proteins were extracted by suspending the pellets with 0.6 M KCl, 30 mM histidine, pH 7 and further centrifugation at 100,000 g for 30 min.
(§6) Final pellets were reconstituted with 0.3 M sucrose, 30 mM histidine, pH 7, to obtain SR-enriched […]
SERCA2a ATPase activity was measured as the rate of 32P-ATP release at multiple Ca2+ concentrations (100-2000 nM) in the absence and presence of tested compounds, as previously described5. Increasing concentrations of each compound were pre-incubated with 2 μg of cardiac preparations for 5 min at 4° C in 80 μl of a solution containing 100 mM KCl, 5 mM MgCl2, 1 μM A23187, 20 mM Tris, pH 7.5. Then, 20 μl of 5 mM Tris-ATP containing 50 nCi of 32P-ATP (3-10 Ci/mmol, Perkin Elmer) were added. The ATP hydrolysis was continued for 15 min at 37°C and the reaction was stopped by acidification with 100 μl of 20% ice-cold perchloric acid. 32P was separated by centrifugation with activated charcoal (Norit A, Serva) and the radioactivity was measured. SERCA2a-dependent ATPase activity was identified as the portion of total hydrolytic activity inhibited by cyclopiazonic acid (CPA, 10 µM). Technical replicates were used to ensure the reliability of single values.
Reconstitution of SERCA1 with PLN1-32 synthetic fragment
Adult healthy male guinea-pigs were used to prepare SERCA1-enriched SR microsomes from fast-twitch hind leg muscles. Microsomes were prepared as described for SERCA2a preparations. For reconstitution experiments, SERCA1 (PLN-free) was pre-incubated with synthetic PLN1-32 fragment (canine sequence, Biomatik Corporation, Canada) in 20 mM imidazole, pH 7, at 1:300 SERCA1:PLN ratio for 30 min at room temperature. After pre-incubation, SERCA1 (PLN-free) alone, or reconstituted with PLN1-32 […]
fragment, was utilized for SERCA activity measurement by using 32P-ATP hydrolysis method at different

SERCA2a = molecular target: T2, SERCA2a (Rattus norvegicus, UniProt P11507); assay: SERCA2a ATPase activity in cardiac homogenates from diabetic (STZ) rats; assay type: biochemical
T2 construct: tissues from healthy and STZ rats were homogenized; from tissue; host or cells: Sprague Dawley rat left ventricle homogenates (healthy or STZ-diabetic)
Description: as §2, §3, §4
Left ventricles (LV) were dissected from rat and guinea -pig of healthy and failing preparations and frozen until use. Tissues were homogenized, subjected to centrifugation to obtain SR -enriched microsomes and sarcomeric proteins were extracted, as previously described 4.
as §5, §6
In the case of rat hearts, cardiac homogenates were used to have sufficient material to replicate the experiments within a single animal. Hearts were excised from rats eight weeks after STZ injection. LV tissues from healthy and STZ rats were homogenized (1 g in 4 ml buffer) in a medium containing 300 mM sucrose, 50 mM K-phosphate, 10 mM NaF, 0.3 mM PMSF, 0.5 mM DTT, pH 7, and centrifuged at 35,000 g for 30 min. The final pellet was resuspended in the same buffer.
SERCA2a ATPase activity was measured as the rate of 32P-ATP release at multiple Ca2+ concentrations (100-2000 nM) in the absence and presence of tested compounds, as previously described5. Increasing concentrations of each compound were pre-incubated with 2 μg of cardiac preparations for 5 min at 4° C in 80 μl of a solution containing 100 mM KCl, 5 mM MgCl2, 1 μM A23187, 20 mM Tris, pH 7.5. Then, 20 μl of 5 mM Tris-ATP containing 50 nCi of 32P-ATP (3-10 Ci/mmol, Perkin Elmer) were added. […] 32P was separated by centrifugation with activated charcoal (Norit A, Serva) and the radioactivity was measured. […]

T2 sequence (P11507 1-997 isoform P11507-2): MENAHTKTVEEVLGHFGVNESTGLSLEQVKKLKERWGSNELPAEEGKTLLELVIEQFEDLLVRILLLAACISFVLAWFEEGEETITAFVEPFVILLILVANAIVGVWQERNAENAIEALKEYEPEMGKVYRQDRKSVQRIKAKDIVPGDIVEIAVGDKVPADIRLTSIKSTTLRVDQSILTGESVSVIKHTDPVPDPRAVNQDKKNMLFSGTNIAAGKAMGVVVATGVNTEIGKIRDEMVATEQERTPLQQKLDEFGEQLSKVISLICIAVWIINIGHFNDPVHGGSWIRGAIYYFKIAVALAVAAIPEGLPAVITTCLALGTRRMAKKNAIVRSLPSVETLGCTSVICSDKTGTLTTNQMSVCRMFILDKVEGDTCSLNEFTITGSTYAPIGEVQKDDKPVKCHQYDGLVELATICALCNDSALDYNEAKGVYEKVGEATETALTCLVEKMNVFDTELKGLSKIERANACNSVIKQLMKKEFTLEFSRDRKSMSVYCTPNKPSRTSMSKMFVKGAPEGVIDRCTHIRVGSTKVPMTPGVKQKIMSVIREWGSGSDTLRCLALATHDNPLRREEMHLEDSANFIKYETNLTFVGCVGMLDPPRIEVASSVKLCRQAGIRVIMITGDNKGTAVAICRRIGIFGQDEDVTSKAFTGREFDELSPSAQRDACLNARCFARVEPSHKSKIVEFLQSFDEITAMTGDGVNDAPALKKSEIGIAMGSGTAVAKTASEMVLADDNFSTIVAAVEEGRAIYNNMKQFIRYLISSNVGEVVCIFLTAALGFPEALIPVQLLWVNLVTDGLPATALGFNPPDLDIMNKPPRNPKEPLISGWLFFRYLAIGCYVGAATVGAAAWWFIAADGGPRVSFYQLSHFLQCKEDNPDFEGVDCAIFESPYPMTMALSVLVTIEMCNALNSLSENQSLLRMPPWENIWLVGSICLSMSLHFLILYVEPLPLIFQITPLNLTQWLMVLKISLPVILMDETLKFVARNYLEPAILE
T1 sequence (H0UXI0 1-1001): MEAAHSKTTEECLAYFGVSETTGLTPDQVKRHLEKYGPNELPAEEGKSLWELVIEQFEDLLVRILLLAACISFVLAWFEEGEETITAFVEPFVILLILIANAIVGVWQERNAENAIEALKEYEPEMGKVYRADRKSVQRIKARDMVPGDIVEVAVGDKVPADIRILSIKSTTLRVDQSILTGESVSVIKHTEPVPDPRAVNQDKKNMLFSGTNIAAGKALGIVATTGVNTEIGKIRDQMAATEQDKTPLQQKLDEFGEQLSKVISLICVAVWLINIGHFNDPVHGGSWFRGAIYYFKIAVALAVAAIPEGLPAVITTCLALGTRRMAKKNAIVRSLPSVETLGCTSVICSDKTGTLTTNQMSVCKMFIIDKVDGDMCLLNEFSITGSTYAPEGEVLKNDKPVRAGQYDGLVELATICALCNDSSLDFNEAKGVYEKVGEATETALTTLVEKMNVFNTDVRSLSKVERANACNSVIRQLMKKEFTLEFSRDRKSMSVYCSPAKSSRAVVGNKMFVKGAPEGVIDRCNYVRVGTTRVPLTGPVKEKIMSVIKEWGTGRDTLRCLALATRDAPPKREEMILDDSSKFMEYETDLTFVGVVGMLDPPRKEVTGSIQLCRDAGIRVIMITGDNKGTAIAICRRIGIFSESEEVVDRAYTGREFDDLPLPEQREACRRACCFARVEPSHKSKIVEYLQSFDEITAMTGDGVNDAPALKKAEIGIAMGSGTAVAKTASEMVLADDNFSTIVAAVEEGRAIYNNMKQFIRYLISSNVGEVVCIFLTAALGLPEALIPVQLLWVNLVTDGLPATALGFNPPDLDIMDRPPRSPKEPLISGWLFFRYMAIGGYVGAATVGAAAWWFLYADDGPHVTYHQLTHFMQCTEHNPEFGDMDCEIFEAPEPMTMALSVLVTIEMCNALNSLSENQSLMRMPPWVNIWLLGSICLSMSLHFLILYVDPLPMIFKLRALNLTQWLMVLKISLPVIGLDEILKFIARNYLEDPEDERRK

SMILES | skeletal SERCA1 activity in the absence of PLN (SERCA1) | SERCA1 KdCa after reconstitution with PLN1–32 [1] | SERCA1 Vmax after reconstitution with PLN1–32 [1] | SERCA2a Vmax increase (SERCA2a; 300 nM) | SERCA2a Vmax increase (SERCA2a; 500 nM)
C[C@]12CC[C@H](CCCC(=O)O)C[C@@H]1[C@@H](O)C[C@@H]1[C@@H]2CC[C@]2(C)C(=O)CC[C@@H]12 [Compound 5] | failed to affect | dose-dependently reversed the PLN-induced shift in KdCa | unchanged | +26% | +25%
C[C@]12CC[C@H](CC(=O)O)C[C@@H]1[C@@H](O)C[C@@H]1[C@@H]2CC[C@]2(C)C(=O)CC[C@@H]12 [Compound 8] | failed to affect | dose-dependently reversed the PLN-induced shift in KdCa | unchanged | +17% | +28%
